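How tested: cells in 96-well plates exposed to compound for 48 hours at five concentrations. GI50: concentration for 50% inhibition of growth. Definition used: TGI = concentration required for complete inhibition of growth.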
Legend:
Assay in all cases: NCI tumour cell line growth inhibition, 48 h
[1] = test system: NCI-H226 lung
[2] = test system: NCI-H23 lung
[3] = test system: NCI-H460 lung
[4] = test system: NCI-H522 lung
[5] = test system: NCI/ADR-RES ovarian
[6] = test system: OVCAR-3 ovarian
[7] = test system: OVCAR-4 ovarian
[8] = test system: OVCAR-5 ovarian
[9] = test system: OVCAR-8 ovarian
[10] = test system: PC-3 prostate
[11] = test system: RPMI-8226 leukemia
[12] = test system: RXF 393 renal
[13] = test system: SF-268 CNS
[14] = test system: SF-295 CNS
[15] = test system: SF-539 CNS
[16] = test system: SK-MEL-2 melanoma
[17] = test system: SK-MEL-28 melanoma
[18] = test system: SK-MEL-5 melanoma
[19] = test system: SK-OV-3 ovarian
[20] = test system: SN12C renal
[21] = test system: SNB-19 CNS
[22] = test system: SNB-75 CNS
[23] = test system: SW-620 colon
[24] = test system: T-47D breast
[25] = test system: TK-10 renal
[26] = test system: U251 CNS
[27] = test system: UACC-257 melanoma
[28] = test system: UACC-62 melanoma
[29] = test system: UO-31 renal

N/C(=N\c1nc2ccccc2s1)NC(=O)Nc1ccccc1F
GI50 [1]: 3.29 µM | TGI [1]: 25 µM | GI50 [2]: 2.23 µM | TGI [2]: 25 µM | GI50 [3]: 0.406 µM | TGI [3]: 12.2 µM | GI50 [4]: 0.412 µM | TGI [4]: 8.84 µM | GI50 [5]: 0.364 µM | TGI [5]: 3.11 µM | GI50 [6]: 0.369 µM | TGI [6]: 4.74 µM | GI50 [7]: 10.9 µM | TGI [7]: 39 µM | GI50 [8]: 3.28 µM | TGI [8]: 31.9 µM | GI50 [9]: 1.25 µM | TGI [9]: 16.6 µM | GI50 [10]: 2.07 µM | TGI [10]: 21.2 µM | GI50 [11]: 1.26 µM | TGI [11]: 17.3 µM | GI50 [12]: 0.645 µM | TGI [12]: 5.25 µM | GI50 [13]: 3.54 µM | TGI [13]: > 100 µM | GI50 [14]: 0.401 µM | TGI [14]: 15.5 µM | GI50 [15]: 0.529 µM | TGI [15]: 4.72 µM | GI50 [16]: 0.321 µM | TGI [16]: 10.3 µM | GI50 [17]: 10.2 µM | TGI [17]: 26.4 µM | GI50 [18]: 0.614 µM | TGI [18]: 11.1 µM | GI50 [19]: 6.48 µM | TGI [19]: 23.8 µM | GI50 [20]: 0.842 µM | TGI [20]: 25.8 µM | GI50 [21]: 1.73 µM | TGI [21]: 24 µM | GI50 [22]: 0.201 µM | TGI [22]: 7.22 µM | GI50 [23]: 0.412 µM | TGI [23]: 21.9 µM | GI50 [24]: 2.85 µM | TGI [24]: > 100 µM | GI50 [25]: 12.1 µM | TGI [25]: 30 µM | GI50 [26]: 0.468 µM | TGI [26]: 14.4 µM | GI50 [27]: 14.4 µM | TGI [27]: 75.4 µM | GI50 [28]: 0.387 µM | TGI [28]: 18.9 µM | GI50 [29]: 1.7 µM | TGI [29]: 21.8 µM

Reference: PubChem BioAssay (NCI)
